Structures can show the parent of a compound that is named as a salt. Where two headings read alike, the source gives them in different places.
Legend:
[1] = Rat hepatocytes metabolic stability assay; assay type: in vitro ADME; conditions: male, cryopreserved hepatocytes; rat hepatocytes 1×10^6 viable cells/mL
Description: (§1) Rat/Human Hepatocytes Metabolic Stability Assay
(§2) 2) 30 mM stock solutions of test compounds were prepared in DMSO. Thawing medium and supplement incubation medium (serum-free) were placed in a 37° C. water bath for at least 15 minutes prior to use. Stock solutions were diluted to 500 μM by combining 295 μL acetonitrile and 5 μL of 30 mM stock solution. 3) Vials of cryopreserved hepatocytes were removed from storage, ensured that vials remain at cryogenic temperatures. The pressure was removed by loosening and re-tightening the cap. The vials were thawed in a 37° C. water bath with gently shaking. Vials were kept in water bath until all ice crystals had dissolved and were no longer visible. Vials were sprayed with 70% ethanol before being transferred to a biosafety cabinet. And then the contents were poured into the 50 mL thawing medium conical tube. Vials were centrifuged at 100 g for 10 minutes at room temperature. Thawing medium was aspirated and hepatocytes were resuspended with serum-free incubation medium to yield ˜1.5×10^6 cells/mL. 4) Cell viability and density were counted using a Trypan Blue exclusion, and then cells were diluted with serum-free incubation medium to a working cell density of 1×10^6 viable cells/ml. 5) A portion of the hepatocytes at 1×10^6 viable cells/mL was boiled for 10 min prior to adding to the plate as negative control to eliminate the enzymatic activity so that little or no substrate turnover should be observed. The inactivated hepatocytes were used to prepare negative samples, which were used to exclude the misleading factor that resulted from instability of chemical itself 6) Aliquots of 247.5 μL hepatocytes were dispensed into each well of a 96-well non-coated plate. The plate was placed in the incubator on an orbital shaker at 500 rpm for approximately 10 minutes. 7) Aliquots of 2.5 μL of the 500 μM test compounds were added into respective wells of the non-coated 96-well plate to start the reaction. This assay was performed in duplicate. The plate was incubated in the incubator on an orbital shaker at 500 rpm for the designed time points. […]

[2] = Human hepatocytes metabolic stability assay; assay type: in vitro ADME; conditions: both sexes, cryopreserved hepatocytes; human hepatocytes 1×10^6 viable cells/mL
Description: as §1, §2

[3] = Rat liver S9 fractions metabolic stability assay; conditions: both, pooled liver S9 fractions
[4] = both, human, pooled liver S9 fractions
[5] = background statement; cited from earlier work
[6] = background statement; cited from earlier work; remark: listed apart in the source
[7] = Rat pharmacokinetic study; conditions: male, Sprague-Dawley, plasma, 50 mg/kg
[8] = Dog pharmacokinetic study; assay type: in vivo, male Beagle dogs; conditions: male, Beagle, plasma, IV
Text: For dog pharmacokinetic studies, male Beagle dogs were housed individually. Dogs in oral administration groups were fasted overnight before use but with free access to water supply. Dogs in IV groups have free access to food and water. […]

## CC(C)[C@H](N)C(=O)OCCCC(=O)O [Compound 58, (S)-4-(2-amino-3-methylbutanoyloxy)butanoic acid]
[1]
  half-life at 5 μM: 46.7 min
[2]
  half-life at 5 μM: 160 min

## CC(=O)N[C@H](C(=O)OCCCC(=O)O)C(C)C [Compound 67, (S)-4-(2-acetamido-3-methylbutanoyloxy)butanoic acid]
[1]
  half-life at 5 μM: 131 min
[2]
  half-life at 5 μM: 220 min
[3]
  half-life at 5 μM: 74.2 min
[4]
  half-life at 5 μM: 83.2 min

## O=C(O)CCCO [GHB sodium salt]
[5]
  reduction of the total number of cataplexy episodes: ~70%
[6]
  plasma half-life (t1/2): < 60 min
[7]; iv
  AUC(0-t): 25900 ng·h/mL
  bioavailability: 100%
[7]; po
  AUC(0-t): 6700 ng·h/mL
  Cmax: 7600 ng/mL
  Tmax: 17 min
  bioavailability: 26%
[8]; GHB sodium salt 20 mg/kg
  AUC(0-t): 35700 ng·h/mL
[8]; GHB sodium salt 20 mg/kg (reference), read-out: Bioavailability F (%)
  bioavailability: 100%

## CC(OC(=O)OCCCC(=O)O)OC(=O)c1ccccc1 (stereo not shown) [Compound 89, 4-(1-(benzoyloxy)ethoxycarbonyloxy)butanoic Acid]
[3]
  half-life at 5 μM: 17.5 min
[4]
  half-life at 5 μM: 10.5 min

## Cl.N[C@@H](Cc1ccccc1)C(=O)OCCCC(=O)O [hydrochloride salt of Compound 57, (S)-4-(2-amino-3-phenylpropanoyloxy)butanoic acid hydrochloride]
[3]
  half-life at 5 μM: 2.48 min
[4]
  half-life at 5 μM: 2.15 min

## CC(C)C(=O)NCC(=O)OCCCC(=O)O [Compound 64, 4-(2-isobutyramidoacetoxy)butanoic acid]
[3]
  half-life at 5 μM: 62.7 min
[4]
  half-life at 5 μM: 58 min

## CC(=O)NCC(=O)OCCCC(=O)O [Compound 66, 4-(2-acetamidoacetoxy)butanoic Acid]
[1]
  half-life at 5 μM: 16.7 min
[2]
  half-life at 5 μM: 24.9 min
[3]
  half-life at 5 μM: 8 min
[4]
  half-life at 5 μM: 9.21 min

## O=C(O)CCCOC(=O)Oc1ccccc1 [Compound 32, 4-(phenoxycarbonyloxy)butanoic acid]
[3]
  half-life at 5 μM: 8.5 min
[4]
  half-life at 5 μM: 40.4 min

Source: patent US10941107B2, “Prodrugs of gamma-hydroxybutyric acid, compositions and uses thereof” (XW LABORATORIES INC., priority 2015, dated 2021)
